Patent US20190216772A1, “Antioxidant-Containing Food Composition for Use in Enhancing Antiviral Immunity in Companion Animals” (priority 2008, published 2019)

Assays:
Format in all cases: in vivo, dog
EIF2AK2 = assay: Whole blood gene expression (canine 2 Affymetrix genechip) in dogs fed lipoic acid food for 30 days; conditions: dogs fed control food containing 150 ppm alpha-lipoic acid for 30 days vs control food
Text: (§1) Twenty dogs were fed for 30 days. Ten were fed an AAFCO level control food and 10 other dogs were fed the AAFCO level control food containing 150 ppm alpha-lipoic acid. At the end of the end of the 30 days whole blood samples were collected from each dog in Paxgene tubes.
(§2) Total RNAs were isolated from whole blood samples using the PAXgene RNA isolation kit. All measurements were done with the canine 2 Affymetrix genechips. For statistical analysis, all measurements were normalized with RMA. All analysis was preformed using Partek. An ANOVA t-test was performed for genes that are differentially expressed between the control and test foods. (at least a 20% change in expression with a pvalue<0.05)
(§3) Differentially expressed genes were analyzed with the GeneGo pathway analysis software.

IFNAR2 = assay: as above; conditions: dogs fed control food containing 150 ppm alpha-lipoic acid for 30 days vs control food; whole blood RNA
Text: as §1, §2, §3

IFR9 = assay: as above; conditions: dogs fed control food containing 150 ppm alpha-lipoic acid for 30 days vs control food; whole blood RNA
Text: as §1, §2, §3

CREBBP = assay: as above; conditions: dogs fed control food containing 150 ppm alpha-lipoic acid for 30 days vs control food; whole blood RNA
Text: as §1, §2, §3

RNASEL = assay: as above; conditions: dogs fed control food containing 150 ppm alpha-lipoic acid for 30 days vs control food; whole blood RNA
Text: as §1, §2, §3

JAK2 = assay: as above; conditions: dogs fed control food containing 150 ppm alpha-lipoic acid for 30 days vs control food; whole blood RNA
Text: as §1, §2, §3

IFNGR2 = assay: as above; conditions: dogs fed control food containing 150 ppm alpha-lipoic acid for 30 days vs control food; whole blood RNA
Text: as §1, §2, §3

[1] = system: interferon mediated antiviral response; assay: GeneGo pathway analysis of differentially expressed genes in dogs fed lipoic acid; conditions: dogs fed lipoic acid for 30 days; 150 ppm in food
Text: as §1, §2, §3

Compound: O=C(O)CCCCC1CCSS1 (stereo not drawn) [lipoic acid, alpha-lipoic acid]
- Fold Up-regulated, EIF2AK2 (Interferon-induced double stranded RNA-activated protein) (EIF2AK2): 1.4 fold
- Fold Up-regulated, IFNAR2 (interferon-alpha/beta receptor beta chain precursor) (IFNAR2): 1.3 fold
- Fold Up-regulated, IFR9 (interferon regulatory factor 9) (IFR9): 1.3 fold
- Fold Up-regulated, CREBBP (CREB-binding protein) (CREBBP): 1.2 fold
- Fold Up-regulated, RNASEL (2-5A-dependent ribonuclease) (RNASEL): 1.5 fold
- Fold Up-regulated, JAK2 (Tyrosine protein kinase JAK2) (JAK2): 1.4 fold
- Fold Up-regulated, IFNGR2 (interferon-gamma receptor beta chain precursor) (IFNGR2): 1.2 fold
- interferon mediated antiviral response (pathway analysis of differentially expressed genes) [1]: exhibited an interferon mediated antiviral response
